Columns and labels:
scentless chamomile [1] = assay: Test E scentless chamomile; type: in vivo, Matricaria inodora; details: Postemergence
Summary of the method: (§1)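 Postemergence: spray at 1–4 leaf stage, soil 60:40 sandy loam:potting mix; solvent + surfactant formulation; greenhouse 21–28 d; visual injury vs untreated controls.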

wild buckwheat = assay: Test E wild buckwheat; type: in vivo, Polygonum convolvulus; details: Preemergence
chickweed = assay: Test E chickweed; type: in vivo, Stellaria media; details: Postemergence
Procedure: (§2) Compounds evaluated in this test were formulated in a non-phytotoxic solvent mixture which included a surfactant and applied to plants that were in the 1- to 4-leaf stage (postemergence application). A mixture of sandy loam soil and greenhouse potting mix in a 60:40 ratio was used for the postemergence test.
(§3) Plantings of these crops and weed species were adjusted to produce plants of appropriate size for the postemergence test. All plant species were grown using normal greenhouse practices. Crop and weed species include annual bluegrass (Poa annua), blackgrass (Alopecurus myosuroides), black nightshade (Solanum nigra), chickweed (Stellaria media), common poppy (Papaver rhoeas), deadnettle (Lamium amplexicaule), downy brome (Bromus tectorum), field violet (Viola arvensis), galium (Galium aparine), green foxtail (Setaria viridis), Italian ryegrass (Lolium multiflorum), jointed goatgrass (Aegilops cylindrica), kochia (Kochia scoparia), lambsquarters (Chenopodium album), littleseed canarygrass (Phalaris minor), rape (Brassica napus), redroot pigweed (Amaranthus retroflexus), Russian thistle (Salsola kali), scentless chamomile (Matricaria inodora), spring barley (Hordeum vulgare), sugar beet (Beta vulgaris), sunflower (Helianthus annuus), ivyleaf speedwell (Veronica hederaefolia), spring wheat (Triticum aestivum), winter wheat (Triticum aestivum), wild buckwheat (Polygonum convolvulus), wild mustard (Sinapis arvensis), wild oat (Avena fatua), windgrass (Apera spica-venti) and winter barley (Hordeum vulgare).
(§4) Treated plants and untreated controls were maintained in a greenhouse for approximately 21 to 28 days, after which all treated plants were compared to untreated controls and visually evaluated. […] A dash response (-) means no test result.

deadnettle = assay: Test E deadnettle; type: in vivo, Lamium amplexicaule; details: Postemergence
Procedure: as §2, §3, §4

sunflower = assay: Test E sunflower; type: in vivo, Helianthus annuus; details: Postemergence
Summary of the method: as §1

annual bluegrass = assay: Test E annual bluegrass; type: in vivo, Poa annua; details: Postemergence
Summary of the method: as §1

winter barley = assay: Test E winter barley; type: in vivo, Hordeum vulgare; details: Postemergence
Procedure: as §2, §3, §4

scentless chamomile [2] = assay: Test E scentless chamomile; type: in vivo, Matricaria inodora; details: Preemergence
sugar beet = assay: Test E sugar beet; type: in vivo, Beta vulgaris; details: Preemergence
Russian thistle = assay: Test E Russian thistle; type: in vivo, Salsola kali; details: Postemergence
Summary of the method: as §1

black nightshade = assay: Test E black nightshade; type: in vivo, Solanum nigra; details: Postemergence
Summary of the method: as §1

ivyleaf speedwell = assay: Test E postemergence ivyleaf speedwell; type: in vivo, Veronica hederaefolia
Procedure: as §2, §3, §4

spring wheat = assay: Test E spring wheat; type: in vivo, Triticum aestivum; details: Preemergence
green foxtail = assay: Test E green foxtail; type: in vivo, Setaria viridis; details: Postemergence
Summary of the method: as §1

common poppy = assay: Test E common poppy; type: in vivo, Papaver rhoeas; details: Postemergence; for Plant response rating, Comnion poppy: Rate 125 g/ha
Procedure: as §2, §3, §4

sourgrass = assay: Test D sourgrass; type: in vivo, Trichachne insularis; details: Preemergence, 0 to 100 scale
Description: Seeds, tubers, or plant parts of Alexandergrass (Brachiaria plantaginea), bermuda-grass (Cynodon dactylon), common pursiane (Portulaca oleracea), common ragweed (Ambrosia elatior), common groundsel (Senecio vulgaris), dallisgrass (Paspalum dilatatum), goosegrass (Eleusine indica), guineagrass (Panicum maximum), itchgrass (Rottboellia exaltata), Johnson grass (Sorghum halepense), large crabgrass (Digitaria sanguinalis), pitted morningglory (Ipomoea lacunosa), purple nutsedge (Cyperus rotundus), sandbur (Cenchrus echinatus), sourgrass (Trichachne insularis), Spanishneedles (Bidens bipinnata), surinam grass (Brachiaria decumbens) and tall mallow (Malva sylvestris) were planted into greenhouse pots of flats containing greenhouse planting medium. Plant species were grown in separate pots or individual compartments. Preemergence applications were made within one day of planting the seed or plant part.
Test chemicals were formulated in a non-phytotoxic solvent mixture which included a surfactant and applied preemergence to the surface of the pot containing seeds in a sandy loam soil. Untreated control pots and treated pots were placed in the greenhouse for growth and visually evaluated for injury 14 to 21 days after herbicide application. Plant response ratings, summarized in Table C, are based on a 0 to 100 scale where 0 is no injury and 100 is complete control. A dash (−) response means no test result.

[3] = Rate 250 g/ha, 0 to 100 scale (0 no effect, 100 complete control)
[4] = Rate 62 g/ha, 0 to 100 scale, 0 no effect, 100 complete control
[5] = Rate 125 g/ha, 0 to 100 scale (0 no effect, 100 complete control)

CCn1c(=O)on(C(=O)N(c2ccc(Cl)cc2)C(C)C)c1=O [Compound 108]
Plant response rating, Scentless chamo (scentless chamomile [1]; Rate 62 g/ha, 0 to 100 scale): 10 | Plant response rating, Scentless chamo (scentless chamomile [1]; Rate 125 g/ha, 0 to 100 scale): 0 | Plant response rating, Scentless chamo (scentless chamomile [1]; [3]): 10 | Plant response rating, Wild buckwheat (wild buckwheat; [4]): 60 | Plant response rating, Wild buckwheat (wild buckwheat; [5]): 100 | Plant response rating, Wild buckwheat (wild buckwheat; Rate 250 g/ha, 0 to 100 scale): 80 | Plant response rating, Chickweed (chickweed; Rate 62 g/ha, 0 to 100 scale): 10 | Plant response rating, Chickweed (chickweed; Rate 125 g/ha, 0 to 100 scale): 0 | Plant response rating, Chickweed (chickweed; [3]): 0 | Plant response rating, Deadnettle (deadnettle; Rate 62 g/ha, 0 to 100 scale): 10 | Plant response rating, Deadnettle (deadnettle; Rate 125 g/ha, 0 to 100 scale): 20 | Plant response rating, Deadnettle (deadnettle; [3]): 30 | Plant response rating, Sunflower (sunflower; Rate 62 g/ha, 0 to 100 scale): 20 | Plant response rating, Sunflower (sunflower; Rate 125 g/ha, 0 to 100 scale): 30 | Plant response rating, Sunflower (sunflower; [3]): 35 | Plant response rating, Annual bluegras (annual bluegrass; Rate 62 g/ha, 0 to 100 scale): 0 | Plant response rating, Annual bluegras (annual bluegrass; Rate 125 g/ha, 0 to 100 scale): 15 | Plant response rating, Annual bluegras (annual bluegrass; [3]): 50 | Plant response rating, Barley (winter) (winter barley; Rate 62 g/ha, 0 to 100 scale): 10 | Plant response rating, Barley (winter) (winter barley; Rate 125 g/ha, 0 to 100 scale): 10 | Plant response rating, Barley (winter) (winter barley; [3]): 15 | Plant response rating, Scentless chamo (scentless chamomile [2]; [4]): 50 | Plant response rating, Scentless chamo (scentless chamomile [2]; [5]): 60 | Plant response rating, Scentless chamo (scentless chamomile [2]; Rate 250 g/ha, 0 to 100 scale): 80 | Plant response rating, Sugar beet (sugar beet; [4]): 60 | Plant response rating, Sugar beet (sugar beet; [5]): 40 | Plant response rating, Sugar beet (sugar beet; Rate 250 g/ha, 0 to 100 scale): 60 | Plant response rating, Russian thistle (Russian thistle; Rate 62 g/ha, 0 to 100 scale): 0 | Plant response rating, Russian thistle (Russian thistle; Rate 125 g/ha, 0 to 100 scale): 0 | Plant response rating, Russian thistle (Russian thistle; [3]): 0 | Plant response rating, Blk nightshade (black nightshade; Rate 62 g/ha, 0 to 100 scale): 20 | Plant response rating, Blk nightshade (black nightshade; Rate 125 g/ha, 0 to 100 scale): 30 | Plant response rating, Blk nightshade (black nightshade; [3]): 50 | Plant response rating, Veronica hedera (ivyleaf speedwell; Rate 62 g/ha, 0 to 100 scale): 0 | Plant response rating, Veronica hedera (ivyleaf speedwell; Rate 125 g/ha, 0 to 100 scale): 10 | Plant response rating, Veronica hedera (ivyleaf speedwell; [3]): 40 | Plant response rating, Spring Wheat (spring wheat; [4]): 10 | Plant response rating, Spring Wheat (spring wheat; [5]): 20 | Plant response rating, Spring Wheat (spring wheat; Rate 250 g/ha, 0 to 100 scale): 30 | Plant response rating, Green foxtail (green foxtail; Rate 62 g/ha, 0 to 100 scale): 10 | Plant response rating, Green foxtail (green foxtail; Rate 125 g/ha, 0 to 100 scale): 15 | Plant response rating, Green foxtail (green foxtail; [3]): 75 | Plant response rating, Common poppy (common poppy; Rate 62 g/ha, 0 to 100 scale): 10 | Plant response rating, Comnion poppy (common poppy; 0 to 100 scale): 0 | Plant response rating, Common poppy (common poppy; [3]): 0

C=CCn1c(=O)on(C(=O)N(c2ccccc2)C(C)C)c1=O [Compound 93]
Plant response rating, Scentless chamo (scentless chamomile [1]; Rate 62 g/ha, 0 to 100 scale): 0 | Plant response rating, Scentless chamo (scentless chamomile [1]; Rate 125 g/ha, 0 to 100 scale): 0 | Plant response rating, Scentless chamo (scentless chamomile [1]; [3]): 0 | Plant response rating, Wild buckwheat (wild buckwheat; [4]): 30 | Plant response rating, Wild buckwheat (wild buckwheat; [5]): 30 | Plant response rating, Wild buckwheat (wild buckwheat; Rate 250 g/ha, 0 to 100 scale): 40 | Plant response rating, Chickweed (chickweed; Rate 62 g/ha, 0 to 100 scale): 0 | Plant response rating, Chickweed (chickweed; Rate 125 g/ha, 0 to 100 scale): 0 | Plant response rating, Chickweed (chickweed; [3]): 0 | Plant response rating, Deadnettle (deadnettle; Rate 62 g/ha, 0 to 100 scale): 0 | Plant response rating, Deadnettle (deadnettle; Rate 125 g/ha, 0 to 100 scale): 0 | Plant response rating, Deadnettle (deadnettle; [3]): 0 | Plant response rating, Sunflower (sunflower; Rate 62 g/ha, 0 to 100 scale): 0 | Plant response rating, Sunflower (sunflower; Rate 125 g/ha, 0 to 100 scale): 0 | Plant response rating, Sunflower (sunflower; [3]): 0 | Plant response rating, Annual bluegras (annual bluegrass; Rate 62 g/ha, 0 to 100 scale): 20 | Plant response rating, Annual bluegras (annual bluegrass; Rate 125 g/ha, 0 to 100 scale): 20 | Plant response rating, Annual bluegras (annual bluegrass; [3]): 50 | Plant response rating, Barley (winter) (winter barley; Rate 62 g/ha, 0 to 100 scale): 0 | Plant response rating, Barley (winter) (winter barley; Rate 125 g/ha, 0 to 100 scale): 0 | Plant response rating, Barley (winter) (winter barley; [3]): 0 | Plant response rating, Sugar beet (sugar beet; [4]): 0 | Plant response rating, Sugar beet (sugar beet; [5]): 10 | Plant response rating, Sugar beet (sugar beet; Rate 250 g/ha, 0 to 100 scale): 5 | Plant response rating, Russian thistle (Russian thistle; Rate 62 g/ha, 0 to 100 scale): 0 | Plant response rating, Russian thistle (Russian thistle; Rate 125 g/ha, 0 to 100 scale): 0 | Plant response rating, Russian thistle (Russian thistle; [3]): 0 | Plant response rating, Blk nightshade (black nightshade; Rate 62 g/ha, 0 to 100 scale): 0 | Plant response rating, Blk nightshade (black nightshade; Rate 125 g/ha, 0 to 100 scale): 0 | Plant response rating, Blk nightshade (black nightshade; [3]): 50 | Plant response rating, Veronica hedera (ivyleaf speedwell; Rate 62 g/ha, 0 to 100 scale): 0 | Plant response rating, Veronica hedera (ivyleaf speedwell; Rate 125 g/ha, 0 to 100 scale): 0 | Plant response rating, Veronica hedera (ivyleaf speedwell; [3]): 0 | Plant response rating, Spring Wheat (spring wheat; [4]): 30 | Plant response rating, Spring Wheat (spring wheat; [5]): 50 | Plant response rating, Spring Wheat (spring wheat; Rate 250 g/ha, 0 to 100 scale): 80 | Plant response rating, Green foxtail (green foxtail; Rate 62 g/ha, 0 to 100 scale): 0 | Plant response rating, Green foxtail (green foxtail; Rate 125 g/ha, 0 to 100 scale): 0 | Plant response rating, Green foxtail (green foxtail; [3]): 0 | Plant response rating, Common poppy (common poppy; Rate 62 g/ha, 0 to 100 scale): 0 | Plant response rating, Comnion poppy (common poppy; 0 to 100 scale): 0 | Plant response rating, Common poppy (common poppy; [3]): 0

Cc1ccccc1-n1c(=O)on(C(=O)N(c2ccc(F)cc2)C(C)C)c1=O [Compound 4]
Plant response rating, Sourgrass (sourgrass; Rate 16 g/ha, 0 no injury, 100 complete control): 50 | Plant response rating, Sourgrass (sourgrass; Rate 32 g/ha, 0 no injury, 100 complete control): 65 | Sourgrass plant response rating (sourgrass; Rate 64 g/ha, 0 no injury, 100 complete control): 90 | Sourgrass plant response rating (sourgrass; Rate 125 g/ha, 0 no injury, 100 complete control): 100 | Plant response rating, Sourgrass (sourgrass; Rate 250 g/ha): 100 | Plant response rating, Sourgrass (sourgrass; Rate 500 g/ha): 100

Source: patent publication US6737383B1, “Herbicidal oxadiazolidines” (priority 1999, dated 2004)
